According to patent US20230129485A1, “SYSTEM AND METHOD FOR DETERMINING MATERIAL PROPERTIES OF MOLECULAR SYSTEMS FROM AN AB-INITIO PARAMETERIZED FORCE-FIELD” (InterX, Inc., priority 2021, published 2023):
Where two headings read alike, the source gives them in different places.

How the values were obtained:
[1] = experimental, cited from earlier work; for Exp (hydration): Table 5
[2] = Free energy of hydration predicted by General Amber Force Field (GAFF), from literature; conditions: Table 5; error of GAFF hydration free energy vs experiment
[3] = experimental, cited from earlier work
[4] = Free energy of hydration predicted with the QM-parameterized force field model (ARROW FF), classical MD and PIMD simulation in a water box; conditions: for Arrow error: Table 5, error of Arrow PIMD8 hydration free energy vs experiment; for Arrow PIMD8 Error: absolute error vs Exp (hydration)
Procedure, shortened: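 Solute decoupled from solvent in a 32×32×32 Å3 water box (PME, 9 Å cutoffs), electrostatics, exchange-repulsion and dispersion switched off together over 15 lambda points with soft-coring. Steepest-descent minimization, 50 ps equilibration, 1 ns NPT production at 1 atm; classical and path-integral MD. Free energy from BAR and TI.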

[5] = Free energy of hydration by COSMO implicit solvent model (MolPro ver. 2012); conditions: absolute error vs Exp (hydration)
Procedure, shortened: (§1)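 Implicit-solvent predictions of hydration free energy. MolPro supplied the COSMO solvation energies across the dataset. Predicted SMD and PCM values were received rather than computed here. Coverage for SMD, PCM and COSMO-RS matches the QM-parameterized force-field subset.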

[6] = Free energy of hydration by Polarizable Continuum Model (PCM); conditions: absolute error vs Exp (hydration)
Procedure, shortened: as §1

[7] = Table 5; free energy of hydration, GAFF prediction taken from literature; cited from earlier work
[8] = Free energy of hydration by COSMO-RS
Procedure, shortened: as §1

[9] = implicit solvent model, values received; cited from earlier work
[10] = Free energy of hydration by Free Energy Machine Learning Model (FML); conditions: absolute error vs Exp (hydration)
Description: Machine learning models can be used for free energy determination.

[11] = Free energy of hydration predicted by polarizable AMOEBA force field, from literature; conditions: Table 5; error of AMOEBA hydration free energy vs experiment
[12] = implicit solvent model, values received; cited from earlier work; remark: listed apart in the source
[13] = Free energy of hydration by Solvation Model Dielectric (SMD) implicit solvent model; conditions: absolute error vs Exp (hydration)
Procedure, shortened: as §1

[14] = Table 5; free energy of hydration, AMOEBA prediction taken from literature; cited from earlier work
[15] = CHEX/H2O partition coefficient, experimental, cited from earlier work; for Exp (log D): Table 3; for logD Exp (logD): Table 4
[16] = CHEX/H2O partition coefficient (log D) predicted with the QM-parameterized force field model (ARROW FF)
Procedure, shortened: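 Cyclohexane/water partition coefficients were predicted by molecular simulation with a QM-parameterized force field, with bonded force constants and equilibrium values fitted to MP2/aug-cc-pVTZ energies. Solutes carried neutral functional groups, and results from four independent groups were averaged.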

[17] = Bulk solvent properties (density, heat of vaporization, self-solvation) predicted with the QM-parameterized force field model (AFF MD / PIMD)
Description: Particle-Mesh Ewald (PME) algorithm was used to compute the electrostatic interactions. A 32×32×32 grid mesh and 5th power spline interpolation order can be used to compute the inverse PME sum. 9 Å cutoffs were used to compute the direct PME sum as well as the exchange and dispersion interactions. Bulk corrections were applied to account for distance cut-off of dispersion interactions. Solvation free energies were computed by decoupling the interactions between the solute and the solvent molecules. Electrostatic, exchange-repulsion and dispersion interactions were switched off simultaneously using a lambda-dependent scaling (a scaling factor power=2 was used) and a soft-coring algorithm (maximal soft-coring radius=1.5 Å, soft-coring radius scaling factor power=1). 15 lambda points unequally spaced (X=0, 0.05, 0.1, 0.2, 0.3, 0.4, 0.5, 0.6, 0.7, 0.75, 0.8, 0.85, 0.9, 0.95, 1.0) were used to decouple the solute-solvent intermolecular interactions.
In some simulations of the QM-parameterized force field molecular simulation process, energy minimization (10,000 steps) using the steepest descent algorithm was initially performed on all the simulation systems. This was followed by a 50 ps equilibration and 1 ns production runs in the isothermal-isobaric ensemble (NPT). […] Pressure was maintained at 1 atm using a MTTK barostat (relaxation time=5 ps). […]

[18] = experimental; cited from earlier work
[19] = Free energy of solvation in cyclohexane predicted with the QM-parameterized force field model (ARROW FF), MD and PIMD; conditions: Table 4; for CHEX Arrow MD Error: error of MD cyclohexane solvation free energy vs experiment; for CHEX Arrow PIMD4 Error: error of PIMD4 cyclohexane solvation free energy vs experiment
Procedure, shortened: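 Solute–cyclohexane interactions decoupled over 15 λ points with soft-core scaling, in MD and path-integral simulations under NPT at 1 atm using PME electrostatics and 9 Å cutoffs. Each window had 50 ps equilibration and 1 ns production; free energies from BAR and TI.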

[20] = Table 3, free energy of hydration
[21] = Table 3, free energy of solvation in cyclohexane
[22] = Table 3, absolute error of MD hydration free energy vs experiment
[23] = Table 3, absolute error of PIMD8 hydration free energy vs experiment
[24] = Table 4, neutral amino-acid analogues
[25] = Table 4, solvation free energy in cyclohexane
[26] = Table 4, error of MD hydration free energy vs experiment
[27] = Table 4, error of PIMD8 hydration free energy vs experiment

Row | Structure (SMILES) | water Exp (hydration) [1, 20] [kcal/mol] | Exp (hydration) ([1]; free energy of hydration) [kcal/mol] | GAFF error [2] [kcal/mol] | CHEX Exp (solvation) [3, 21] [kcal/mol] | water Arrow MD Error [4, 22] [kcal/mol] | water Arrow PIMD8 Error [4, 23] [kcal/mol] | Arrow error [4] [kcal/mol] | Arrow PIMD8 Error [4] [kcal/mol] | COSMO/Molpro Error [5] [kcal/mol] | PCM Error [6] [kcal/mol] | GAFF [7] [kcal/mol] | COSMO-RS error [8] [kcal/mol] | PCM free energy of hydration [9] [kcal/mol] | FML error [10] [kcal/mol] | AMOEBA error [11] [kcal/mol] | SMD free energy of hydration [12] [kcal/mol] | SMD Error [13] [kcal/mol] | AMOEBA [14] [kcal/mol] | Exp (log D) [15] | log D Arrow MD Error [16] | also measured
1 | CCCO [Propanol] | -4.92 | -4.92 | 1.80 | -2.73 | 0.58 | 0.18 | 0.18 | 0.18 | 1.30 | 1.82 | -3.12 | 0.12 | -3.10 | 0.11 | 0.07 | -4.10 | 0.82 | -4.85 | – | – | –
2 | O [Water] | -6.30 | -6.30 | 0.26 | -0.39 | 0.51 | 0.17 | 0.17 | 0.17 | 2.29 | 1.60 | -6.04 | 2.53 | -4.70 | – | 0.44 | -8.00 | 1.70 | -5.86 | −4.33 | 0.31 | Hydration [1]: -6.30 kcal/mol; log D Arrow PIMD Error [16]: 0.17; agreement of predicted bulk properties with experimental values ([17]; density, heat of vaporization, self-solvation, PIMD8): ≤ 3%; Density [18]: 0.997 g/cc; Hvap [18]: 10.51 kcal/mol; self-solvation [18]: -6.30 kcal/mol
3 | c1ccncc1 [pyridine] | -4.69 | -4.69 | 1.24 | -4.30 | 0.84 | 0.08 | 0.08 | 0.08 | 2.04 | 1.49 | -3.45 | 0.73 | -3.20 | 0.21 | 0.90 | -4.20 | 0.49 | -5.59 | – | – | –
4 | C1CCCCC1 [Cyclohexane] | 1.23 | – | – | -4.42 | 1.03 | 0.10 | – | 0.10 | 1.71 | 1.33 | – | 0.10 | -0.10 | – | – | 1.40 | 0.17 | – | 4.14 | 0.89 | Hydration [1]: 1.20 kcal/mol; log D Arrow PIMD Error [16]: 0.36; agreement of bulk energetics ([17]; within chemical accuracy): ≤ 0.5 kcal/mol; Density [18]: 0.790 g/cc; Hvap [18]: 7.91 kcal/mol; self-solvation [18]: -4.42 kcal/mol
5 | CCO [Ethanol] | -5.01 | -5.01 | 1.56 | -2.59 | 0.74 | 0.07 | 0.07 | 0.07 | 1.19 | 1.91 | -3.45 | 0.07 | -3.10 | 0.08 | 0.32 | -4.20 | 0.81 | -4.69 | – | – | water Exp (hydration) [1, 24]: -5.01 kcal/mol; CHEX Exp (solvation) [3, 25]: -2.59 kcal/mol; water Arrow MD Error [4, 26]: 0.74 kcal/mol; water Arrow PIMD8 Error [4, 27]: 0.07 kcal/mol; CHEX Arrow MD Error [19]: 0.05 kcal/mol; CHEX Arrow PIMD4 Error [19]: 0.12 kcal/mol
6 | CC(C)O [2-Propanol] | -4.62 | -4.62 | 1.34 | -2.37 | 1.26 | 0.00 | 0.00 | 0.00 | – | 1.52 | -3.28 | 0.00 | -3.10 | 0.29 | 0.41 | -4.30 | 0.32 | -4.21 | – | – | –
7 | CCC [Propane] | 1.96 | 1.96 | 0.60 | -2.03 | 0.66 | 0.00 | 0.00 | 0.00 | 2.43 | 2.06 | 2.56 | 0.05 | -0.10 | 0.50 | 0.27 | 1.80 | 0.16 | 1.69 | 2.93 | 0.31 | water Exp (hydration) [1, 24]: 1.96 kcal/mol; CHEX Exp (solvation) [3, 25]: -2.03 kcal/mol; water Arrow MD Error [4, 26]: 0.66 kcal/mol; water Arrow PIMD8 Error [4, 27]: 0.00 kcal/mol; logD Exp (logD) [15]: 2.93; log D Arrow PIMD Error [16]: 0.04; logD Arrow MD Error [16]: 0.31; logD Arrow PIMD Error [16]: 0.04; CHEX Arrow MD Error [19]: 0.23 kcal/mol; CHEX Arrow PIMD4 Error [19]: 0.05 kcal/mol
8 | C [Methane] | 1.96 | 1.96 | 0.24 | 0.14 | 0.32 | 0.09 | 0.09 | 0.09 | 2.35 | 2.06 | 2.20 | 0.20 | -0.10 | 1.59 | 0.23 | 2.20 | 0.24 | 1.73 | 1.33 | 0.25 | water Exp (hydration) [1, 24]: 1.96 kcal/mol; CHEX Exp (solvation) [3, 25]: 0.14 kcal/mol; water Arrow MD Error [4, 26]: 0.32 kcal/mol; water Arrow PIMD8 Error [4, 27]: 0.09 kcal/mol; logD Exp (logD) [15]: 1.33; log D Arrow PIMD Error [16]: 0.09; logD Arrow MD Error [16]: 0.25; logD Arrow PIMD Error [16]: 0.09; CHEX Arrow MD Error [19]: 0.01 kcal/mol; CHEX Arrow PIMD4 Error [19]: 0.04 kcal/mol
